The numbers were not newly measured in US4529593A, “Use of gallium salts to treat disorders of calcium homeostasis” (Sloan-Kettering Institute for Cancer Research, priority 1984, dated 1985), which cites them from elsewhere.

SMILES strings stand for the structures.

One data set has as its system blood calcium levels. To be noted: prior knowledge; cited from earlier work.
In data set [1] the test system is bone cells (particularly osteoclasts). To be noted: comparatively brief exposure; Minkin 1973, Bockman unpublished; cited from earlier work.

Consider `CO[C@H](C(=O)[C@@H](O)[C@@H](C)O)[C@@H]1Cc2cc3cc(O[C@H]4C[C@@H](O[C@H]5C[C@@H](O)[C@H](O)[C@@H](C)O5)[C@H](O)[C@@H](C)O4)c(C)c(O)c3c(O)c2C(=O)[C@H]1O[C@H]1C[C@@H](O[C@H]2C[C@@H](O[C@H]3C[C@](C)(O)[C@H](O)[C@@H](C)O3)[C@@H](O)[C@@H](C)O2)[C@H](O)[C@@H](C)O1` [Mithramycin], for which, in the data set with blood calcium levels, the blood calcium levels result was “can also reduce blood calcium levels”. Further, in data set [1], the “loss of bone cells (particularly osteoclasts) number” value was “considerable loss of bone cells”.
